Results: ChEMBL document CHEMBL4002643, “Tubulin-binding dibenz[c,e]oxepines: Part 2. Structural variation and biological evaluation as tumour vasculature disrupting agents” (Bioorg Med Chem, 2017)
pIC50: −log10 of the molar value.

Tests used:
T47D = test: Cytotoxicity against human T47D cells assessed as growth inhibition after 48 hrs by SRB assay; format: functional
MDA-MB-231 = test: Cytotoxicity against human MDA-MB-231 cells assessed as growth inhibition after 48 hrs by SRB assay; format: functional; conditions: MDA-MB-231, 48 h
SK-OV-3 = test: Cytotoxicity against human SKOV3 cells assessed as growth inhibition after 48 hrs by SRB assay; format: functional; conditions: SK-OV-3, 48 h
HCC 2998 = test: Cytotoxicity against human HCC2998 cells assessed as growth inhibition after 48 hrs by SRB assay; format: functional; conditions: HCC 2998, 48 h
OVCAR-3 = test: Cytotoxicity against human OVCAR3 cells assessed as growth inhibition after 48 hrs by SRB assay; format: functional; conditions: OVCAR-3, 48 h
NCI-H23 = test: Cytotoxicity against human NCI-H23 cells assessed as growth inhibition after 48 hrs by SRB assay; format: functional; conditions: NCI-H23, 48 h
SR = test: Cytotoxicity against human SR cells assessed as growth inhibition after 48 hrs by SRB assay; format: functional
CCRF-CEM = test: Cytotoxicity against human CCRF-CEM cells assessed as growth inhibition after 48 hrs by SRB assay; format: functional
NCI-H522 = test: Cytotoxicity against human NCI-H522 cells assessed as growth inhibition after 48 hrs by SRB assay; format: functional; conditions: NCI-H522, 48 h
BT-549 = test: Cytotoxicity against human BT549 cells assessed as growth inhibition after 48 hrs by SRB assay; format: functional; conditions: BT-549, 48 h
COLO 205 = test: Cytotoxicity against human COLO205 cells assessed as growth inhibition after 48 hrs by SRB assay; format: functional; conditions: COLO 205, 48 h
HCT-116 = test: Cytotoxicity against human HCT116 cells assessed as growth inhibition after 48 hrs by SRB assay; format: functional; conditions: HCT-116, 48 h
[1] = Inhibition of porcine tubulin assembly measured for 30 mins by UV/visible spectrophotometric method; parameters: species or system Sus scrofa
UACC-62 = test: Cytotoxicity against human UACC62 cells assessed as growth inhibition after 48 hrs by SRB assay; format: functional; conditions: UACC-62, 48 h
NCI-H460 = test: Cytotoxicity against human NCI-H460 cells assessed as growth inhibition after 48 hrs by SRB assay; format: functional; conditions: NCI-H460, 48 h
HL-60(TB) = test: Cytotoxicity against human HL-60(TB) cells assessed as growth inhibition after 48 hrs by SRB assay; format: functional; conditions: HL-60, 48 h
U-251 = test: Cytotoxicity against human U251 cells assessed as growth inhibition after 48 hrs by SRB assay; format: functional; conditions: U-251, 48 h
SF-268 = test: Cytotoxicity against human SF268 cells assessed as growth inhibition after 48 hrs by SRB assay; format: functional; conditions: SF-268, 48 h
SF-539 = test: Cytotoxicity against human SF539 cells assessed as growth inhibition after 48 hrs by SRB assay; format: functional; conditions: SF-539, 48 h
A549 = test: Cytotoxicity against human A549 cells assessed as growth inhibition after 48 hrs by SRB assay; format: functional; conditions: A549, 48 h
SK-MEL-28 = test: Cytotoxicity against human SK-MEL-28 cells assessed as growth inhibition after 48 hrs by SRB assay; format: functional; conditions: SK-MEL-28, 48 h
KM12 = test: Cytotoxicity against human KM12 cells assessed as growth inhibition after 48 hrs by SRB assay; format: functional; conditions: KM12, 48 h
SNB-75 = test: Cytotoxicity against human SNB75 cells assessed as growth inhibition after 48 hrs by SRB assay; format: functional; conditions: SNB-75, 48 h
NCI-H226 = test: Cytotoxicity against human NCI-H226 cells assessed as growth inhibition after 48 hrs by SRB assay; format: functional; conditions: NCI-H226, 48 h
786-0 = test: Cytotoxicity against human 786-0 cells assessed as growth inhibition after 48 hrs by SRB assay; format: functional; conditions: 786-0, 48 h
IGROV-1 = test: Cytotoxicity against human IGROV1 cells assessed as growth inhibition after 48 hrs by SRB assay; format: functional; conditions: IGROV-1, 48 h
HOP-62 = test: Cytotoxicity against human HOP62 cells assessed as growth inhibition after 48 hrs by SRB assay; format: functional; conditions: HOP-62, 48 h
RXF 393 = test: Cytotoxicity against human RXF393 cells assessed as growth inhibition after 48 hrs by SRB assay; format: functional; conditions: RXF 393, 48 h
MOLT-4 = test: Cytotoxicity against human MOLT4 cells assessed as growth inhibition after 48 hrs by SRB assay; format: functional; conditions: MOLT-4, 48 h
HCT-15 = test: Cytotoxicity against human HCT15 cells assessed as growth inhibition after 48 hrs by SRB assay; format: functional; conditions: HCT-15, 48 h
MDA-MB-468 = test: Cytotoxicity against human MDA-MB-468 cells assessed as growth inhibition after 48 hrs by SRB assay; format: functional; conditions: MDA-MB-468, 48 h
UACC-257 = test: Cytotoxicity against human UACC257 cells assessed as growth inhibition after 48 hrs by SRB assay; format: functional; conditions: UACC-257, 48 h
OVCAR-4 = test: Cytotoxicity against human OVCAR4 cells assessed as growth inhibition after 48 hrs by SRB assay; format: functional; conditions: OVCAR-4, 48 h
LOX IMVI = test: Cytotoxicity against human LOXIMVI cells assessed as growth inhibition after 48 hrs by SRB assay; format: functional
MCF7 = test: Cytotoxicity against human MCF7 cells assessed as growth inhibition after 48 hrs by SRB assay; format: functional; conditions: MCF7, 48 h
SK-MEL-5 = test: Cytotoxicity against human SK-MEL-5 cells assessed as growth inhibition after 48 hrs by SRB assay; format: functional; conditions: SK-MEL-5, 48 h
SN12C = test: Cytotoxicity against human SN12C cells assessed as growth inhibition after 48 hrs by SRB assay; format: functional
M14 = test: Cytotoxicity against human M14 cells assessed as growth inhibition after 48 hrs by SRB assay; format: functional; conditions: M14, 48 h
MDA-MB-435 = test: Cytotoxicity against human MDA-MB-435 cells assessed as growth inhibition after 48 hrs by SRB assay; format: functional; conditions: MDA-MB-435, 48 h
SNB-19 = test: Cytotoxicity against human SNB19 cells assessed as growth inhibition after 48 hrs by SRB assay; format: functional; conditions: SNB-19, 48 h
UO-31 = test: Cytotoxicity against human UO31 cells assessed as growth inhibition after 48 hrs by SRB assay; format: functional; conditions: UO-31, 48 h
CAKI-1 = test: Cytotoxicity against human Caki1 cells assessed as growth inhibition after 48 hrs by SRB assay; format: functional; conditions: CAKI-1, 48 h
Hs-578T = test: Cytotoxicity against human Hs 578T cells assessed as growth inhibition after 48 hrs by SRB assay; format: functional
RPMI-8226 = test: Cytotoxicity against human RPMI8226 cells assessed as growth inhibition after 48 hrs by SRB assay; format: functional; conditions: RPMI-8226, 48 h
SF-295 = test: Cytotoxicity against human SF295 cells assessed as growth inhibition after 48 hrs by SRB assay; format: functional; conditions: SF-295, 48 h
PC-3 = test: Cytotoxicity against human PC3 cells assessed as growth inhibition after 48 hrs by SRB assay; format: functional; conditions: PC-3, 48 h

SMILES: COc1ccc2c(c1O)COCc1cc(OC)c(OC)c(OC)c1-2
- GI50 (T47D): 33900 nM
- GI50 (MDA-MB-231): 270 nM
- GI50 (SK-OV-3): 70 nM
- GI50 (HCC 2998): 320 nM
- GI50 (OVCAR-3): 210 nM
- GI50 (NCI-H23): 760 nM
- GI50 (SR): 40 nM
- GI50 (CCRF-CEM): 40 nM
- GI50 (NCI-H522): 40 nM
- GI50 (BT-549): 260 nM
- GI50 (COLO 205): 500 nM
- GI50 (HCT-116): 320 nM
- pIC50 [1]: 5.66
- GI50 (UACC-62): 1000 nM
- GI50 (NCI-H460): 310 nM
- GI50 (HL-60(TB)): 30 nM
- GI50 (U-251): 300 nM
- GI50 (SF-268): 90 nM
- GI50 (SF-539): 50 nM
- GI50 (A549): 350 nM
- GI50 (SK-MEL-28): 1580 nM
- GI50 (KM12): 50 nM
- GI50 (SNB-75): 70 nM
- GI50 (NCI-H226): 3470 nM
- GI50 (786-0): 430 nM
- GI50 (IGROV-1): 630 nM
- GI50 (HOP-62): 630 nM
- GI50 (RXF 393): 40 nM
- GI50 (MOLT-4): 60 nM
- GI50 (HCT-15): 80 nM
- GI50 (MDA-MB-468): 220 nM
- GI50 (UACC-257): > 100000 nM
- GI50 (OVCAR-4): 710 nM
- GI50 (LOX IMVI): 80 nM
- GI50 (MCF7): 70 nM
- GI50 (SK-MEL-5): 40 nM
- GI50 (SN12C): 210 nM
- GI50 (M14): 50 nM
- GI50 (MDA-MB-435): 30 nM
- GI50 (SNB-19): 140 nM
- GI50 (UO-31): 14500 nM
- GI50 (CAKI-1): 830 nM
- GI50 (Hs-578T): 40 nM
- GI50 (RPMI-8226): 320 nM
- GI50 (SF-295): 270 nM
- GI50 (PC-3): 280 nM

SMILES: COc1ccc2c(c1OP(=O)([O-])[O-])COCc1cc(OC)c(OC)c(OC)c1-2.[Na+].[Na+]
- GI50 (T47D): 8510 nM
- GI50 (MDA-MB-231): 710 nM
- GI50 (SK-OV-3): 400 nM
- GI50 (HCC 2998): 420 nM
- GI50 (OVCAR-3): 280 nM
- GI50 (NCI-H23): 710 nM
- GI50 (SR): 190 nM
- GI50 (CCRF-CEM): 290 nM
- GI50 (NCI-H522): 300 nM
- GI50 (BT-549): 2240 nM
- GI50 (COLO 205): 620 nM
- GI50 (HCT-116): 430 nM
- pIC50 [1]: 5.85
- GI50 (UACC-62): 5500 nM
- GI50 (NCI-H460): 360 nM
- GI50 (HL-60(TB)): 320 nM
- GI50 (U-251): 480 nM
- GI50 (SF-268): 790 nM
- GI50 (SF-539): 330 nM
- GI50 (A549): 420 nM
- GI50 (SK-MEL-28): 890 nM
- GI50 (KM12): 300 nM
- GI50 (SNB-75): 540 nM
- GI50 (NCI-H226): 2820 nM
- GI50 (786-0): 720 nM
- GI50 (IGROV-1): 4070 nM
- GI50 (HOP-62): 790 nM
- GI50 (RXF 393): 210 nM
- GI50 (MOLT-4): 400 nM
- GI50 (HCT-15): 440 nM
- GI50 (MDA-MB-468): 1150 nM
- GI50 (UACC-257): 4680 nM
- GI50 (OVCAR-4): 1290 nM
- GI50 (LOX IMVI): 660 nM
- GI50 (MCF7): 400 nM
- GI50 (SK-MEL-5): 260 nM
- GI50 (SN12C): 720 nM
- GI50 (M14): 270 nM
- GI50 (MDA-MB-435): 40 nM
- GI50 (SNB-19): 510 nM
- GI50 (UO-31): 19500 nM
- GI50 (CAKI-1): 790 nM
- GI50 (Hs-578T): 240 nM
- GI50 (RPMI-8226): 460 nM
- GI50 (SF-295): 320 nM
- GI50 (PC-3): 560 nM

SMILES: COc1ccc2c(c1)COCc1cc(OC)c(OC)c(OC)c1-2
- GI50 (T47D): > 100000 nM
- GI50 (MDA-MB-231): 590 nM
- GI50 (SK-OV-3): 130 nM
- GI50 (HCC 2998): 220 nM
- GI50 (OVCAR-3): 50 nM
- GI50 (NCI-H23): 440 nM
- GI50 (SR): 40 nM
- GI50 (CCRF-CEM): 80 nM
- GI50 (NCI-H522): 280 nM
- GI50 (BT-549): 200 nM
- GI50 (COLO 205): 110 nM
- GI50 (HCT-116): 50 nM
- pIC50 [1]: 5.13
- GI50 (UACC-62): 80 nM
- GI50 (NCI-H460): 170 nM
- GI50 (HL-60(TB)): 40 nM
- GI50 (U-251): 100 nM
- GI50 (SF-268): 460 nM
- GI50 (SF-539): 160 nM
- GI50 (A549): 130 nM
- GI50 (SK-MEL-28): 80 nM
- GI50 (KM12): 50 nM
- GI50 (SNB-75): 90 nM
- GI50 (NCI-H226): 1580 nM
- GI50 (786-0): 340 nM
- GI50 (IGROV-1): 850 nM
- GI50 (HOP-62): 1120 nM
- GI50 (RXF 393): 80 nM
- GI50 (MOLT-4): 90 nM
- GI50 (HCT-15): 80 nM
- GI50 (MDA-MB-468): 30 nM
- GI50 (UACC-257): > 100000 nM
- GI50 (OVCAR-4): 740 nM
- GI50 (LOX IMVI): 210 nM
- GI50 (MCF7): 40 nM
- GI50 (SK-MEL-5): 30 nM
- GI50 (SN12C): 830 nM
- GI50 (M14): 50 nM
- GI50 (MDA-MB-435): 30 nM
- GI50 (SNB-19): 980 nM
- GI50 (UO-31): 15100 nM
- GI50 (CAKI-1): 30200 nM
- GI50 (Hs-578T): 240 nM
- GI50 (RPMI-8226): 330 nM
- GI50 (SF-295): 60 nM
- GI50 (PC-3): 480 nM
